Reference: patent publication US20110173718A1, “HERBICIDE TOLERANT PLANTS” (SYNGENTA CROP PROTECTION, INC., priority 2008, published 2011)
Like-named read-outs stand apart in the source and are kept apart here. Marks after values point to notes of the source that are not given here.

Experiments:
[1] = biological target: T1, Arabidopsis HST (Arabidopsis thaliana, UniProt Q1ACB3); test: HST total extraction (non TLC) assay, recombinant Arabidopsis HST from insect cells; type: biochemical
T1 construct: GST (factor Xa cleavage site) (N); made in house; host or cells: Sf9 insect cells (baculovirus, pAcG3X), membrane fraction
T1 sequence (Q1ACB3 70-386): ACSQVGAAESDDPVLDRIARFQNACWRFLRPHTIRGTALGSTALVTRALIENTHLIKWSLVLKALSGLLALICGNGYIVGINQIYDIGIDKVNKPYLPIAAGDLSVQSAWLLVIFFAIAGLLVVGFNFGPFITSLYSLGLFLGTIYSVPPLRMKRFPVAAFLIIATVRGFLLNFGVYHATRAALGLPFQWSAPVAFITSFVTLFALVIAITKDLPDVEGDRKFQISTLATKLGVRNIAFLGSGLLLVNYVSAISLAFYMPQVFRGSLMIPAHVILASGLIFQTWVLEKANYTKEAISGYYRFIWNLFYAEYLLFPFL

[2] = biological target: T2, Chlamydomonas HST (Chlamydomonas reinhardtii, UniProt A1JHN0); test: HST assay (TLC, MFBQ formed), recombinant Chlamydomonas HST in E. coli membranes; type: biochemical; conditions: for inhibition at 25 ppm: read-out: Chlamydomonas. HST % I at 25 ppm
T2 construct: GST (N); made in house; host or cells: E. coli (BL21A1 / BL21DE3), membrane fraction
T2 sequence (A1JHN0 51-370): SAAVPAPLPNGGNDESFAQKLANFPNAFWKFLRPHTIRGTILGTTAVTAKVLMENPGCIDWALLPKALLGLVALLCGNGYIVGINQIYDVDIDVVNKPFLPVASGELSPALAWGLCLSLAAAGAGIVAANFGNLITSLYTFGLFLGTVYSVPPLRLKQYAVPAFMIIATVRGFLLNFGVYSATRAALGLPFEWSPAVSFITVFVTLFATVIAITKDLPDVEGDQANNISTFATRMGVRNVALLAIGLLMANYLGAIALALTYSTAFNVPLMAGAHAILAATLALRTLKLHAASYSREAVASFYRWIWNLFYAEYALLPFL
How it was run: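 Recombinant GST-fused Chlamydomonas HST in E. coli membranes was incubated with 200 μM farnesyl diphosphate and 100 μM 14C-homogentisate in 50 mM Tricine-NaOH pH 8.5, 20 mM MgCl2 for ~20 min at 28 °C, with compounds in DMSO. Oxidised plus reduced MFBQ was quantified by TLC phosphorimaging. Results are percent inhibition versus no-inhibitor control across doses.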

[3] = 25 ppm, TLC, estimated amount of MFBQ formed, relative to controls
[4] = 3 point dose curves only conducted at 50 μM HPP
[5] = TLC, estimated amount of MFBQ formed, relative to controls

Row | Compound | Estimated IC50 (ppm) [1] [ppm] | inhibition at 25 ppm [2, 3] [%] | other results
1 | O=c1c(-c2cc(C(F)(F)F)ccc2Cl)c(O)c2nccnc2n1CC(F)F [Compound 2.9] | 6 | 90 | 
2 | O=c1c(-c2c(F)ccc(F)c2Cl)c(O)c2cccnc2n1CC(F)F [Compound 2.13] |  |  | Estimated IC50 (ppm) [1, 4]: 54* ppm; Chlamydomonas. HST % I at 25 ppm [2, 3]: 60%
3 | Oc1c(Cl)c(F)nc(F)c1Cl [Compound 1.1, haloxydine] |  | 80 | Chlamydomonas. HST % I at 10 ppm [2, 5]: 70%; Chlamydomonas. HST % I at 100 ppm [2, 5]: 95%; inhibition of the HST enzyme reaction (MFBQ and other products) ([2]; 500 ppm, stated for the HST enzyme preparations assayed): completely inhibits
4 | O=c1c(-c2c(Cl)ccc(Cl)c2Cl)c(O)c2nccnc2n1CC(F)F [Compound 2.14] | 9 | 85 | 
5 | O=c1c(-c2c(F)ccc(Br)c2Cl)c(O)c2nccnc2n1CC(F)F [Compound 2.8] | 12 | 85 | 
6 | O=c1c(-c2c(F)ccc(F)c2Cl)c(O)c2nccnc2n1CC(F)F [Compound 2.3] |  |  | Estimated IC50 (ppm) [1, 4]: 19* ppm; Chlamydomonas. HST % I at 10 ppm [2, 5]: 40%; Chlamydomonas. HST % I at 100 ppm [2, 5]: 85%
7 | O=c1c(-c2c(F)ccc(Br)c2Cl)c(O)c2cccnc2n1CC(F)F [Compound 2.15] | 12 |  | 
